Reference: US8415469B2, “Compounds and methods for kinase modulation, and indications therefor” (Plexxikon Inc., priority 2005, dated 2013)

Experiments:
Assay type in all cases: biochemical
MAP2K1 = molecular target: T1, MAP2K1 (Homo sapiens, UniProt Q02750); experiment: Z'-Lyte FRET kinase assay (Invitrogen), MAP2K1; details: read-out: IC50, activity toward kinase MAP2K1
T1 construct: purchased Invitrogen (assay run by Invitrogen)

Kdr = molecular target: T2, Kdr (Homo sapiens, UniProt P35968); experiment: Z'-Lyte FRET kinase assay (Invitrogen), Kdr; details: read-out: IC50, activity toward kinase Kdr
T2 construct: purchased Invitrogen (assay run by Invitrogen)

Stk6 = molecular target: T3, Stk6 (Homo sapiens, UniProt O14965); experiment: Z'-Lyte FRET kinase assay (Invitrogen), Stk6; details: read-out: IC50, activity toward kinase Stk6
T3 construct: purchased Invitrogen (Carlsbad, Calif.), screening service
T3 sequence (O14965 1-403): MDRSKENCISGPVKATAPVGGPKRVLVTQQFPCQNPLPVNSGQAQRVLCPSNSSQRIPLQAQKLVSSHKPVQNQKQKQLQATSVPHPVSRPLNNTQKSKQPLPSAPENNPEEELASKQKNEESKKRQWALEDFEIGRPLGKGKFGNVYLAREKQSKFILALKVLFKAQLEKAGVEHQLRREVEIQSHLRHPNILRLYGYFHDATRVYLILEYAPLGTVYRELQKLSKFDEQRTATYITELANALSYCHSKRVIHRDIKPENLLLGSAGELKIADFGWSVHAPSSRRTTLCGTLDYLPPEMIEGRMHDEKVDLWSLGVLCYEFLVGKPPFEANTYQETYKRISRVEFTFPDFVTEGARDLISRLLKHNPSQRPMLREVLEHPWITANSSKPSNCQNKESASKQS

Met = molecular target: T4, Met (Homo sapiens, UniProt P08581); experiment: AlphaScreen kinase assay, Met; details: read-out: IC50, activity toward kinase Met
T4 construct: P1818.pETN6 BI-PTP MET G1056-G1364-X WT; His6 (N); made in house; host or cells: E. coli (PTP1B co-expressed)
Procedure, shortened: (§1)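 Biotinylated peptide substrate phosphorylation detected by AlphaScreen with phospho-specific antibody acceptor beads and streptavidin donor beads. Compounds tested as 8-point 1:3 serial dilutions from 20 mM DMSO stocks.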

FGFR1 = molecular target: T5, FGFR1 (Homo sapiens, UniProt P11362, C488A/C584S); experiment: AlphaScreen kinase assay, FGFR1; details: read-out: IC50, activity toward kinase FGFR
T5 construct: P1351.pET N6 BI-PTP FGFR A458-E765-X C488A, C584S; made in house; host or cells: E. coli (PTP1B co-expressed)

B-Raf V600E = molecular target: T6, B-Raf V600E (Homo sapiens, UniProt P15056, V600E); experiment: AlphaScreen kinase assay, B-Raf V600E; details: read-out: IC50, activity toward kinase B-Raf V600E
T6 construct: P4254. pFastBacBD-CDC37 BRAF D437-K722-X, V600E; His6 with pFastBac HT leader (TEV site) (N); made in house; host or cells: Sf9 (baculovirus; chaperone CDC37 co-expressed)

Fms = molecular target: T7, Fms (Homo sapiens, UniProt P07333); experiment: AlphaScreen kinase assay, Fms; details: read-out: IC50, activity toward kinase Fms
T7 construct: purchased Upstate Biotechnology

Kit = molecular target: T8, Kit (Homo sapiens, UniProt P10721); experiment: AlphaScreen kinase assay, Kit; details: read-out: IC50, activity toward kinase Kit
T8 construct: P1332.N6 BI PTP KIT M552-K948-X COD; His6 (N); made in house; host or cells: E. coli (PTP1B co-expressed)

Yes = molecular target: T9, Yes (Homo sapiens, UniProt P07947); experiment: Z'-Lyte FRET kinase assay (Invitrogen), Yes; details: read-out: IC50, activity toward kinase Yes
T9 construct: purchased Invitrogen (Carlsbad, Calif.), screening service
Procedure, shortened: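 Inhibition was inferred from protease cleavage of non-phosphorylated peptide, measured as a coumarin/fluorescein ratio. Kinase reactions used 10 μM ATP for 1 h at room temperature.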

Btk = molecular target: T10, Btk (Homo sapiens, UniProt Q06187); experiment: Z'-Lyte FRET kinase assay (Invitrogen), Btk; details: read-out: IC50, activity toward kinase Btk
T10 construct: purchased Invitrogen (assay run by Invitrogen)

Src = molecular target: T11, Src (Homo sapiens, UniProt P12931); experiment: AlphaScreen kinase assay, Src; details: read-out: IC50, activity toward kinase Src
T11 construct: P1144. pET-N6 BI-PTP SRC V86-L536-X; made in house

MAP4K4 = MAP4K4 (Homo sapiens, UniProt O95819); experiment: AlphaScreen kinase assay, MAP4K4; details: read-out: IC50, activity toward kinase MAP4K4
Ret = molecular target: T12, Ret (Homo sapiens, UniProt P07949); experiment: AlphaScreen kinase assay, Ret; details: read-out: IC50, activity toward kinase Ret
T12 construct: P1378.pET-SF BI-PTP RET H661-R1012 HIS; made in house
T12 sequence (P07949 with tags, fused parts or gaps): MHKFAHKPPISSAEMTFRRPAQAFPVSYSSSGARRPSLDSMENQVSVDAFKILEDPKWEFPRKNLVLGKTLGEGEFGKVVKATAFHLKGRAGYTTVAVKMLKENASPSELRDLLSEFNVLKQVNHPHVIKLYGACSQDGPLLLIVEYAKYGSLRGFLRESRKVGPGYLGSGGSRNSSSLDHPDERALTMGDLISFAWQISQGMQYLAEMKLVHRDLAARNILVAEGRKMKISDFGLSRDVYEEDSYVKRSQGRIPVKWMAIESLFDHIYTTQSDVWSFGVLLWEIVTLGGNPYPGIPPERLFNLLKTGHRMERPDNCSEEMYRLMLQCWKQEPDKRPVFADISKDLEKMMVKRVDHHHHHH

Gsk3β = Gsk3β (Homo sapiens, UniProt P49841); experiment: AlphaScreen kinase assay, Gsk3β; details: read-out: IC50, activity toward kinase Gsk3β
Text: AlphaScreen assay was used to screen additional kinases. The assay is similarly dependent on the phosphorylation of a peptide substrate. In this assay, an antibody that recognizes phosphorylated substrate is bound to an acceptor bead. The peptide substrate is attached to biotin, which binds to a donor head that contains streptavidin. Thus phosphorylated substrate is bound by antibody and streptavidin, bringing the donor and acceptor heads into close proximity when kinase is not inhibited. The donor produces singlet oxygen which results in emission from the acceptor when they are in close proximity. Conversely, when kinase is inhibited, the donor and acceptor beads are not associated and the emission from the acceptor is reduced.
AlphaScreen assays were done using compounds dissolved in DMSO to a concentration of 20 mM. The compounds were diluted accordingly to the desired final concentrations in each sample well, using 1:3 serial dilution for a total of 8 concentration points.

Flt4 = molecular target: T13, Flt4 (Homo sapiens, UniProt P35916); experiment: AlphaScreen kinase assay, Flt4; details: read-out: IC50, activity toward kinase Flt4
T13 construct: purchased ProQinase GmbH (Freiburg, Germany)
Procedure, shortened: as §1

Abl = molecular target: T14, Abl (Homo sapiens, UniProt P00519); experiment: AlphaScreen kinase assay, Abl; details: read-out: activity toward kinase Abl, IC50
T14 construct: P1121. pET-SPEC BI-PTP Abl G227-V515-X; His6 (N); made in house; host or cells: E. coli (PTP1B co-expressed)
T14 sequence (P00519 with tags, fused parts or gaps): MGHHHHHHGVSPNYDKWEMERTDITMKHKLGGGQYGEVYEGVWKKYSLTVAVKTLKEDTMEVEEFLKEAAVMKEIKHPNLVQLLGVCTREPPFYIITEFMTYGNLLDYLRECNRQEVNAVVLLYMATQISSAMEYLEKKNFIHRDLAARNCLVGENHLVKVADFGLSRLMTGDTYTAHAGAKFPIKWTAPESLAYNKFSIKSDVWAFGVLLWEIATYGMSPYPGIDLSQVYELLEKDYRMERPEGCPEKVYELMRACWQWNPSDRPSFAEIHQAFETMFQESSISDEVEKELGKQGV
Procedure, shortened: as §1

c-Raf-1 = molecular target: T15, c-Raf-1 (Homo sapiens, UniProt P04049); experiment: AlphaScreen kinase assay, c-Raf-1; details: read-out: IC50, activity toward kinase c-Raf-1
T15 construct: purchased Upstate Biotechnology

B-Raf = molecular target: T16, B-Raf (Homo sapiens, UniProt P15056); experiment: AlphaScreen kinase assay, B-Raf; details: read-out: IC50, activity toward kinase B-Raf
T16 construct: purchased Upstate Biotechnology

Flt1 = molecular target: T17, Flt1 (Homo sapiens, UniProt P17948); experiment: AlphaScreen kinase assay, Flt1; details: read-out: IC50, activity toward kinase Flt1
T17 construct: P1826.pETN6 BI-PTP FLT1 M799-D1165-X WT; His6 (N); made in house; host or cells: E. coli (PTP1B co-expressed)
T17 sequence (P17948 with tags, fused parts or gaps): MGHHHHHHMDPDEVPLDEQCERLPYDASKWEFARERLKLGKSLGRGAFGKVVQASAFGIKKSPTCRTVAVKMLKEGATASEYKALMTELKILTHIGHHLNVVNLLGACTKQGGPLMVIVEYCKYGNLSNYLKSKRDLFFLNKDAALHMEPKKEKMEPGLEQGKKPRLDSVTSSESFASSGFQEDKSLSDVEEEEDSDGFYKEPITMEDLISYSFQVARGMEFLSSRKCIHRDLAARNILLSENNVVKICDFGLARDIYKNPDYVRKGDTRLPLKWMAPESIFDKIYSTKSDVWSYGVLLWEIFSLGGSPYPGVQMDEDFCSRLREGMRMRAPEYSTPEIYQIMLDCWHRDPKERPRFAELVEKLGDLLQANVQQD

Measured: IC50

T8 sequence (P10721 with tags, fused parts or gaps): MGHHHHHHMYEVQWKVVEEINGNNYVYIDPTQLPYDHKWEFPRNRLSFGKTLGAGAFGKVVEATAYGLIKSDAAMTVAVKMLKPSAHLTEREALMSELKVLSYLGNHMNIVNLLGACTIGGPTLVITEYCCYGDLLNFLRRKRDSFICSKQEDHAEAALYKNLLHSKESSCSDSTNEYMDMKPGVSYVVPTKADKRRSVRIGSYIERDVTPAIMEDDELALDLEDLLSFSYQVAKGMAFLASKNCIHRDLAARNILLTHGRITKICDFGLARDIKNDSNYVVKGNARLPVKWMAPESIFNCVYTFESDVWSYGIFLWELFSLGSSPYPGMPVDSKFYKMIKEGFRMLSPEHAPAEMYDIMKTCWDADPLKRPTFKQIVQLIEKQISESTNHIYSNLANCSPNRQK
T6 sequence (P15056 with tags, fused parts or gaps V600E): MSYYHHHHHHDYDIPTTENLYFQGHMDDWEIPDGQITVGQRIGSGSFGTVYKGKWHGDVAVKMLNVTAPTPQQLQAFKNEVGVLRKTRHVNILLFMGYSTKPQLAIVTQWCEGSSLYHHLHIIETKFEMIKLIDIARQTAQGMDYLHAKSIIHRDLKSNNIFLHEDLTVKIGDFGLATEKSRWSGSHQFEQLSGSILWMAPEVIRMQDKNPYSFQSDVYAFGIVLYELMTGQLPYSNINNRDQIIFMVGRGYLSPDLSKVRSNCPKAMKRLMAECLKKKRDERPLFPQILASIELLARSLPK
T5 sequence (P11362 458-765 C488A/C584S): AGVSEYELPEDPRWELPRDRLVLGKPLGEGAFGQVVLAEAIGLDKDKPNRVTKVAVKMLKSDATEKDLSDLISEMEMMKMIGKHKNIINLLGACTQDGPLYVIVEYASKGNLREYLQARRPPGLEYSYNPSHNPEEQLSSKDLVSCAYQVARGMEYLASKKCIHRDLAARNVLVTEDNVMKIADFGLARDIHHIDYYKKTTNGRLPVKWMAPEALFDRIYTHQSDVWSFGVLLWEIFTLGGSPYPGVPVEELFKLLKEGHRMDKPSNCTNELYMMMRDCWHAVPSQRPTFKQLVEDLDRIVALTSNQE
T7 sequence (P07333 20-972): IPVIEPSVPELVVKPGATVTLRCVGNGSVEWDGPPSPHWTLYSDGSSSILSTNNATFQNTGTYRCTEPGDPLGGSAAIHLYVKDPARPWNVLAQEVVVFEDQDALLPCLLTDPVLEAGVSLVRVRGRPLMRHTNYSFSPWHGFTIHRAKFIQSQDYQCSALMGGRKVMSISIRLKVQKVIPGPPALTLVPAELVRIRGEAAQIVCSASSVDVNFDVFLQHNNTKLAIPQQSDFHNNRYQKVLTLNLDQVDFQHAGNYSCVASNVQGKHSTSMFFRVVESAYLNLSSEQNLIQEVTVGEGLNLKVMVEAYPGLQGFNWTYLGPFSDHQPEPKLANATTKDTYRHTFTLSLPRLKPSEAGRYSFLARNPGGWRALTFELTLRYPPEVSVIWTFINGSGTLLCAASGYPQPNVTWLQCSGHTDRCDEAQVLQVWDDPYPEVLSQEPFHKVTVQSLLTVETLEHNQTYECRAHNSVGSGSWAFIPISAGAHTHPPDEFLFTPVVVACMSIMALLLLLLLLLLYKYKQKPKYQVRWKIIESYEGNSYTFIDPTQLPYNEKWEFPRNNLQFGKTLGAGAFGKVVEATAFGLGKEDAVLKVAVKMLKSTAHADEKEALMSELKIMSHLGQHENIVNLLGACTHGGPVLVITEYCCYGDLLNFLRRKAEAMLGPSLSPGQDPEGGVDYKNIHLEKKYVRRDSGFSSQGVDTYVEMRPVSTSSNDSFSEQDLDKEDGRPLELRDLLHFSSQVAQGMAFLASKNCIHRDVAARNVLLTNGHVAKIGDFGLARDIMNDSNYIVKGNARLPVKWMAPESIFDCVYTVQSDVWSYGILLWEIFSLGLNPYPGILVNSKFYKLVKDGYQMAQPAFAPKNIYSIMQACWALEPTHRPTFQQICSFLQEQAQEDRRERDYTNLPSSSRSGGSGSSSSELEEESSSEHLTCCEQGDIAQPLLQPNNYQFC
T1 sequence (Q02750 whole entry): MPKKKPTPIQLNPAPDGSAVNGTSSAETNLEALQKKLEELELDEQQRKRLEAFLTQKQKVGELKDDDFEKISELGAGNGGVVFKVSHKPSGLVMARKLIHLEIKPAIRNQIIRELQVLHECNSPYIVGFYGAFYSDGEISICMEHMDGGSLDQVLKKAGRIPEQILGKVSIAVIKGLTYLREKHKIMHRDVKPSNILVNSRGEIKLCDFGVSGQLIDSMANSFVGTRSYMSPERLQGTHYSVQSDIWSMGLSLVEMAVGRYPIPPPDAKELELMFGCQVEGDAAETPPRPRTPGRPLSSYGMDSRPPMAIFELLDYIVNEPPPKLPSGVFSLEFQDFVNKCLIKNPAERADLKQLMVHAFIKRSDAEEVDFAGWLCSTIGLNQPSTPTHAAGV
T2 sequence (P35968 20-1356): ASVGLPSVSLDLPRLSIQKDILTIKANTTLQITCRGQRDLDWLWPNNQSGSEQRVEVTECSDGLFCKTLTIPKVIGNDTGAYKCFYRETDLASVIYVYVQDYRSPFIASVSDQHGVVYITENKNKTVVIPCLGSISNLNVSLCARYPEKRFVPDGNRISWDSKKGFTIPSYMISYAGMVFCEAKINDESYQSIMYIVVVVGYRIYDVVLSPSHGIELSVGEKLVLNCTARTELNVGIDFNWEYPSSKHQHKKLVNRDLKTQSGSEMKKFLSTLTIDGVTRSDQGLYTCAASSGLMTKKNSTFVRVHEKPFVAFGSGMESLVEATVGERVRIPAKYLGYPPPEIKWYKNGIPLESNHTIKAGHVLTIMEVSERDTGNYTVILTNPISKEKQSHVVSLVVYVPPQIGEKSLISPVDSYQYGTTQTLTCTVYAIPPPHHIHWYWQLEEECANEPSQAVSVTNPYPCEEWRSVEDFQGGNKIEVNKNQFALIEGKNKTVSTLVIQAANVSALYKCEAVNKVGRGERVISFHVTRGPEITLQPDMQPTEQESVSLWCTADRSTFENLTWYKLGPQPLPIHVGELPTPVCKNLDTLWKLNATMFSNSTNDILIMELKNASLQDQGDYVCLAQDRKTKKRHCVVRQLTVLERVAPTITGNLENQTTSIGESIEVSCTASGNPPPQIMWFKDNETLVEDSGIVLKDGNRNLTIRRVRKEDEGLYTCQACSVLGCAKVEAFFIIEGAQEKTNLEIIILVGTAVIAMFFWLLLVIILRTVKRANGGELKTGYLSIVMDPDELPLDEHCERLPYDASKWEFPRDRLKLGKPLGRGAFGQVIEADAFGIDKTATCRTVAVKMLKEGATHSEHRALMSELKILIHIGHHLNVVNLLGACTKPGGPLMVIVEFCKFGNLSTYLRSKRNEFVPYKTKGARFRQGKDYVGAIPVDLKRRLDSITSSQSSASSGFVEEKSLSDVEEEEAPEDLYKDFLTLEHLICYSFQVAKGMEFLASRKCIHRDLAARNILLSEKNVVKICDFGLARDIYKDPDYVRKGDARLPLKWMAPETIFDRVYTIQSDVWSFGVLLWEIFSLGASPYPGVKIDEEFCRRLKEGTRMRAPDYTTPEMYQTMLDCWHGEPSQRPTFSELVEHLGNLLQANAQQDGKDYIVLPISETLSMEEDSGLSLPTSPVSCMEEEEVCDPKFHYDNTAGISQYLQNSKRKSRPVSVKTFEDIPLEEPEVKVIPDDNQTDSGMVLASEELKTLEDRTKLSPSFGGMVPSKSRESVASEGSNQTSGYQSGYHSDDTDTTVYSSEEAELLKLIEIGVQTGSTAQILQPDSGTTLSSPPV
Chain of Gsk3β (P49841 whole entry): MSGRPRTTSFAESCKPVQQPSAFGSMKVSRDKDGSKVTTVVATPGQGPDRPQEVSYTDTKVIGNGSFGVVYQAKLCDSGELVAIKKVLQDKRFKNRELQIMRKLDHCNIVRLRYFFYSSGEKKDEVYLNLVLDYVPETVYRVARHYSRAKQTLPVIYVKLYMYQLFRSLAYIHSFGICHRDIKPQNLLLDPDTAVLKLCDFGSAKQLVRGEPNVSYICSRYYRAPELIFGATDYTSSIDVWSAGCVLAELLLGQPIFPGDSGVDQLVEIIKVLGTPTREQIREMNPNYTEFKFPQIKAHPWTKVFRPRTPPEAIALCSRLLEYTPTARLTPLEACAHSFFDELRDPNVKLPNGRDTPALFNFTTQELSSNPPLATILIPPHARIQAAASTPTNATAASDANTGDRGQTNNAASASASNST
T15 sequence (P04049 whole entry): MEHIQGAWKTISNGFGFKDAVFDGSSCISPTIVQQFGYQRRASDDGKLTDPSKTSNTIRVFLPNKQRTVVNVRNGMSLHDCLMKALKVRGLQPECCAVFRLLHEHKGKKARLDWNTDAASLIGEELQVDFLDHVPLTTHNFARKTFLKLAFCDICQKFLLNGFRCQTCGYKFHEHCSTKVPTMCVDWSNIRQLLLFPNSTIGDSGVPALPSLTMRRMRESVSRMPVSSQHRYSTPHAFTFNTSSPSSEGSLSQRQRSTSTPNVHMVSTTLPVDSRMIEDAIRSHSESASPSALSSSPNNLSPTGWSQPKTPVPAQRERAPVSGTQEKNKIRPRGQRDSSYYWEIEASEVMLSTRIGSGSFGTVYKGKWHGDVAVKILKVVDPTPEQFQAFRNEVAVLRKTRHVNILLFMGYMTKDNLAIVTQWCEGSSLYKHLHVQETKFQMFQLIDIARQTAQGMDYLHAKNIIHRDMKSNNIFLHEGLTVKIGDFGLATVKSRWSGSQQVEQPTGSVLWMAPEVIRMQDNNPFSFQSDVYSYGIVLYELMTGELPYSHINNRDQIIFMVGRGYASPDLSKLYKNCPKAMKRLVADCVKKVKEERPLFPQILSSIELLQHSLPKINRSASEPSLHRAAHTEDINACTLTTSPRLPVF

c1cncc(-c2c[nH]c3ncccc23)c1 [Compound P-0023]
≤ 10 µM: MAP2K1 | Kdr | Stk6

COc1cccc(C(=O)c2c[nH]c3nccc(Cl)c23)c1 [Compound P-0149]
≤ 10 µM: MAP2K1 | Met | FGFR1 | Kdr

COc1ccc(C(=O)c2c[nH]c3ncccc23)c(Cl)c1 [Compound P-0152]
not listed: Stk6 | Met | Gsk3β | Flt4 | Abl | c-Raf-1 | B-Raf | Flt1
≤ 10 µM: all other assays above

Cc1cc(C)cc(-c2ccnc3[nH]ccc23)c1 [Compound P-0159]
≤ 10 µM: Gsk3β | Ret

COc1cccc(C(=O)c2c[nH]c3ncc(-c4cccnc4)cc23)c1 [Compound P-0167]
≤ 10 µM: MAP2K1 | Flt4 | Kit | FGFR1 | Kdr | Abl | Ret

CS(=O)(=O)Nc1ccc(F)c(C(=O)c2c[nH]c3ncc(Br)cc23)c1 [Compound P-0170, N-[3-(5-Bromo-1H-pyrrolo[2,3-b]pyridine-3-carbonyl)-4-fluoro-phenyl]-methanesulfonamide]
≤ 10 µM: MAP2K1 | B-Raf V600E | Fms | c-Raf-1 | FGFR1 | Kdr

Cc1c(NS(C)(=O)=O)cccc1C(=O)c1c[nH]c2ncc(Br)cc12 [Compound P-0180, N-[3-(5-Bromo-1H-pyrrolo[2,3-b]pyridine-3-carbonyl)-2-methyl-phenyl]-methanesulfonamide]
≤ 10 µM: B-Raf V600E | B-Raf | Fms | Kit | c-Raf-1 | FGFR1 | Kdr | Flt1 | Gsk3β

CS(=O)(=O)Nc1cccc(C(=O)c2c[nH]c3ncccc23)c1 [Compound P-0198]
≤ 10 µM: MAP2K1 | FGFR1 | Kdr | MAP4K4

CS(=O)(=O)Nc1cccc(-c2ccnc3[nH]cc(C(=O)c4ccccc4F)c23)c1 [Compound P-0236]
≤ 10 µM: Gsk3β | Ret

Cc1cc(C)cc(-c2ccnc3[nH]cc(Sc4ccccc4)c23)c1 [Compound P-0252]
≤ 10 µM: B-Raf V600E | Gsk3β

Cc1cc(C)cc(-c2ccnc3[nH]cc(Sc4ccccn4)c23)c1 [Compound P-0273]
≤ 10 µM: Gsk3β

Nc1cccc(-c2c(CN3CCC(C(=O)O)CC3)[nH]c3ncccc23)c1 [Compound P-0462]
≤ 10 µM: Gsk3β

O=[N+]([O-])c1cccc(Sc2c[nH]c3nccc(-c4cccc(C(F)(F)F)c4)c23)c1 [Compound P-0969]
≤ 10 µM: Gsk3β

CC(C)(C)OC(=O)Nc1ccc(F)c(C(=O)c2c[nH]c3ncc(Br)cc23)c1F [Compound P-1142]
≤ 10 µM: FGFR1 | Gsk3β

NC(=O)c1cccc(-c2ccnc3[nH]cc(C(=O)c4ccccc4F)c23)c1 [Compound P-1181]
≤ 10 µM: B-Raf V600E | Kit | FGFR1 | Src | Flt1 | Gsk3β | Ret
